SMILES strings stand for the structures.

The test system of one experiment is MOLM-13 cells. The experiment in a line: Cell proliferation assay (alamarBlue), MOLM-13. It is filed as cell-based. The note with it: Homo sapiens, 96 hours incubation, inhibition of cell proliferation. In a few lines: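 Cells in RPMI1640/10% FCS read by alamarBlue fluorescence (ex 530, em 590 nm) after overnight 37 °C incubation, then treated at 1E-5 to 1E-8 M for 96 h. Pre-treatment values subtracted from endpoint values and compared with buffer-only wells; IC50 is 50% proliferation inhibition.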

The target in another experiment is T1, BRD4 (BD1) (Homo sapiens, UniProt O60885).
T1 construct: with relatively long constructs also being possible, preferably amino acids 44-168; made in house; host or cells: E. coli
Nature of the experiment: Binding assay BRD4/acetylated peptide H4 (TR-FRET protein-protein interaction assay). The method, boiled down: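 His6-BRD4 BD1 (aa 67-152, E. coli), usually 10 nM, with biotinylated tetra-acetylated H4 peptide in HEPES pH 7.5 buffer; 11 compound concentrations 0.1 nM–20 μM in duplicate, 10 min preincubation, 1 h at 22 °C then ≥3 h at 4 °C. TR-FRET 665/620 ratio; IC50 by 4-parameter fit.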

As for `CNC(=O)N1N=C(c2ccc(-c3c(C)noc3C)cc2)c2cc(-n3nc(C)cc3C)ccc2CC1C` (racemic) [Example 175, (±)-1-[4-(3,5-Dimethylisoxazol-4-yl)phenyl]-8-(3,5-dimethyl-1H-pyrazol-1-yl)-N,4-dimethyl-4,5-dihydro-3H-2,3-benzodiazepine-3-carboxamide], the half-maximal inhibitory concentration (IC50) in the experiment on MOLM-13 cells was determined as 440 nM; at BRD4 (BD1), 190 nM.
Turning to `CNC(=O)N1N=C(c2ccc(-c3c(C)noc3C)cc2)c2cc(N3CCOCC3)ccc2CC1C` (racemic) [Example 176, (±)-1-[4-(3,5-Dimethylisoxazol-4-yl)phenyl]-N,4-dimethyl-8-(morpholin-4-yl)-4,5-dihydro-3H-2,3-benzodiazepine-3-carboxamide], the IC50 in the experiment with MOLM-13 cells was determined as 520 nM; on BRD4 (BD1) it was 40 nM.
Consider `CNC(=O)N1N=C(c2ccc(N3CCN(CCO)CC3)cc2)c2cc(OC)c(OC)cc2CC1C` (racemic) [Example 178, (±)-1-{4-[4-(2-hydroxyethyl)piperazin-1-yl]phenyl}-7,8-dimethoxy-N,4-dimethyl-4,5-dihydro-3H-2,3-benzodiazepine-3-carboxamide], for which the concentration for half-maximal inhibition (IC50) in the experiment with MOLM-13 cells was determined as 180 nM; at BRD4 (BD1), 70 nM.
For `CNC(=O)N1N=C(c2ccc(N3CCC(OC)CC3)cc2)c2cc(OC)c(OC)cc2CC1C` (racemic) [Example 179, (±)-7,8-dimethoxy-1-[4-(4-methoxypiperidin-1-yl)phenyl]-N,4-dimethyl-4,5-dihydro-3H-2,3-benzodiazepine-3-carboxamide] the same measures were 290 nM and 70 nM.
The corresponding values for `CNC(=O)N1N=C(c2ccc(N3CCC(N(C)C)CC3)cc2)c2cc(OC)c(OC)cc2CC1C` (racemic) [Example 180, (±)-1-{4-[4-(dimethylamino)piperidin-1-yl]phenyl}-7,8-dimethoxy-N,4-dimethyl-4,5-dihydro-3H-2,3-benzodiazepine-3-carboxamide] are 370 nM and 70 nM.
The corresponding values for `CNC(=O)N1N=C(c2ccc(N3CCC(NC(C)=O)CC3)cc2)c2cc(OC)c(OC)cc2CC1C` (racemic) [Example 182, (±)-1-[4-(4-acetamidopiperidin-1-yl)phenyl]-7,8-dimethoxy-N,4-dimethyl-4,5-dihydro-3H-2,3-benzodiazepine-3-carboxamide] are 400 nM and 50 nM.
On to `CNC(=O)N1N=C(c2ccc(N3CC[C@H](O)C3)cc2)c2cc(OC)c(OC)cc2CC1C` (mixture of isomers) [Example 190, (±)-1-{4-[(3S)-3-hydroxypyrrolidin-1-yl]phenyl}-7,8-dimethoxy-N,4-dimethyl-4,5-dihydro-3H-2,3-benzodiazepine-3-carboxamide], for which the results for the IC50 in the experiment on MOLM-13 cells and on BRD4 (BD1) were 80 nM and 90 nM, respectively.
For `CNC(=O)N1N=C(c2ccc(N3CCC(C)(NC(=O)OC(C)(C)C)CC3)cc2)c2cc(OC)c(OC)cc2CC1C` (racemic) [Example 191, (±)-tert-butyl (1-{4-[7,8-dimethoxy-4-methyl-3-(methylcarbamoyl)-4,5-dihydro-3H-2,3-benzodiazepin-1-yl]phenyl}-4-methylpiperidin-4-yl)carbamate] the same measures were 170 nM and 70 nM.
The corresponding values for `CNC(=O)N1N=C(c2ccc(N3C[C@@H](C)NC[C@@H]3C)cc2)c2cc(OC)c(OC)cc2CC1C` (mixture of isomers) [Example 192, (±)-1-{4-[(2S,5R)-2,5-dimethylpiperazin-1-yl]phenyl}-7,8-dimethoxy-N,4-dimethyl-4,5-dihydro-3H-2,3-benzodiazepine-3-carboxamide] are 270 nM and 90 nM.
With `CNC(=O)N1N=C(c2ccc(N3CCN(CC(F)F)CC3)cc2)c2cc(OC)c(OC)cc2CC1C` (racemic) [Example 193, (±)-1-{4-[4-(2,2-difluoroethyl)piperazin-1-yl]phenyl}-7,8-dimethoxy-N,4-dimethyl-4,5-dihydro-3H-2,3-benzodiazepine-3-carboxamide], the IC50 in the experiment on MOLM-13 cells is 110 nM; at BRD4 (BD1) it was 90 nM.
For `CCOc1cc2c(cc1OCC)C(c1ccc(N3CCN(C)CC3)cc1)=NN(C(=O)NC)C(C)C2` (racemic) [Example 200, (±)-7,8-Diethoxy-N,4-dimethyl-1-[4-(4-methylpiperazin-1-yl)phenyl]-4,5-dihydro-3H-2,3-benzodiazepine-3-carboxamide], the IC50 was 180 nM in the experiment with MOLM-13 cells and 500 nM on BRD4 (BD1).
For `CCC1Cc2cc(OC)c(OC)cc2C(c2ccc(N3CCN(S(C)(=O)=O)CC3)cc2)=NN1C(=O)NC` (racemic) [Example 203, (±)-4-ethyl-7,8-dimethoxy-N-methyl-1-{4-[4-(methylsulphonyl)piperazin-1-yl]phenyl}-4,5-dihydro-3H-2,3-benzodiazepine-3-carboxamide] the same measures were 3310 nM and 840 nM.
For the compound `CNC(=O)N1N=C(c2ccc(N3CCS(=O)(=O)CC3)cc2)c2cc(Cl)c(OC(F)(F)F)cc2CC1C` (racemic) [Example 210, (±)-8-chloro-1-[4-(1,1-dioxidothiomorpholin-4-yl)phenyl]-N,4-dimethyl-7-(trifluoromethoxy)-4,5-dihydro-3H-2,3-benzodiazepine-3-carboxamide], the IC50 is 170 nM with MOLM-13 cells and 250 nM on BRD4 (BD1).
The corresponding values for `CNC(=O)N1N=C(c2ccc(N3CCC(O)CC3)cc2)c2cc(Cl)c(OC(F)(F)F)cc2CC1C` (racemic) [Example 212, (±)-8-chloro-1-[4-(4-hydroxypiperidin-1-yl)phenyl]-N,4-dimethyl-7-(trifluoromethoxy)-4,5-dihydro-3H-2,3-benzodiazepine-3-carboxamide] are 820 nM and 310 nM.
For `CNC(=O)N1N=C(c2ccc(N3CCN(C)CC3)cc2)c2cc(Cl)c(OC(F)(F)F)cc2CC1C` (racemic) [Example 213, (±)-8-chloro-N,4-dimethyl-1-[4-(4-methylpiperazin-1-yl)phenyl]-7-(trifluoromethoxy)-4,5-dihydro-3H-2,3-benzodiazepine-3-carboxamide] the same measures were 860 nM and 360 nM.
The corresponding values for `CNC(=O)N1N=C(c2ccc(N3CCS(=O)(=O)CC3)cc2)c2cc(N3CCS(=O)(=O)CC3)c(OC(F)(F)F)cc2CC1C` (racemic) [Example 215, (±)-8-(1,1-dioxidothiomorpholin-4-yl)-1-[4-(1,1-dioxidothiomorpholin-4-yl)phenyl]-N,4-dimethyl-7-(trifluoromethoxy)-4,5-dihydro-3H-2,3-benzodiazepine-3-carboxamide] are 2270 nM and 380 nM.
With `CNC(=O)N1N=C(c2ccc(Cl)cc2)c2cc(N3CCS(=O)(=O)CC3)c(OC(F)(F)F)cc2CC1C` (racemic) [Example 216, (±)-1-(4-chlorophenyl)-8-(1,1-dioxidothiomorpholin-4-yl)-N,4-dimethyl-7-(trifluoromethoxy)-4,5-dihydro-3H-2,3-benzodiazepine-3-carboxamide], the IC50 in the experiment with MOLM-13 cells was found to be 1030 nM; at BRD4 (BD1), 520 nM.
For `CNC(=O)N1N=C(c2ccc(N3CCN(CCO)CC3)cc2)c2ccc(OC(F)(F)F)cc2CC1C` (racemic) [Example 218, (±)-1-{4-[4-(2-hydroxyethyl)piperazin-1-yl]phenyl}-N,4-dimethyl-7-(trifluoromethoxy)-4,5-dihydro-3H-2,3-benzodiazepine-3-carboxamide] the same measures were 300 nM and 880 nM.
For `CNC(=O)N1N=C(c2ccc(N3CCN(C)CC3)cc2)c2cc(OC)c(OC(F)(F)F)cc2CC1C` (racemic) [Example 219, (±)-8-methoxy-N,4-dimethyl-1-[4-(4-methylpiperazin-1-yl)phenyl]-7-(trifluoromethoxy)-4,5-dihydro-3H-2,3-benzodiazepine-3-carboxamide] the same measures were 570 nM and 370 nM.
For `CCC1Cc2cc(OC)c(OC)cc2C(c2ccc(-c3c(C)nn(C)c3C)cc2)=NN1C(=O)NC` (racemic) [Example 220, (±)-4-ethyl-7,8-dimethoxy-N-methyl-1-[4-(1,3,5-trimethyl-1H-pyrazol-4-yl)phenyl]-4,5-dihydro-3H-2,3-benzodiazepine-3-carboxamide] the same measures were 2400 nM and 490 nM.
Turning to `CCC1Cc2cc(OC)c(OC)cc2C(c2ccc(-c3cn(C)nn3)cc2)=NN1C(=O)NC` (racemic) [Example 222, (±)-4-ethyl-7,8-dimethoxy-N-methyl-1-[4-(1-methyl-1H-1,2,3-triazol-4-yl)phenyl]-4,5-dihydro-3H-2,3-benzodiazepine-3-carboxamide], the IC50 in the experiment with MOLM-13 cells amounted to 2120 nM; on BRD4 (BD1) it was 960 nM.
The corresponding values for `CNC(=O)N1N=C(c2ccc(Cl)cc2)c2ccc(N3CCOC3=O)cc2CC1C` (racemic) [Example 230, (±)-1-(4-chlorophenyl)-N,4-dimethyl-7-(2-oxo-1,3-oxazolidin-3-yl)-4,5-dihydro-3H-2,3-benzodiazepine-3-carboxamide] are 230 nM and 240 nM.
The corresponding values for `CNC(=O)N1N=C(c2ccc(Cl)cc2)c2ccc(-c3cn(C)nn3)cc2CC1C` (racemic) [Example 243, (±)-1-(4-chlorophenyl)-N,4-dimethyl-7-(1-methyl-1H-1,2,3-triazol-4-yl)-4,5-dihydro-3H-2,3-benzodiazepine-3-carboxamide] are 340 nM and 320 nM.
For `COc1cc2c(cc1OC)C(c1ccc(N3CCN(C)CC3)cc1)=NN(C(C)=O)C(C)C2` (racemic) [Example 245, (±)-1-{7,8-Dimethoxy-4-methyl-1-[4-(4-methylpiperazin-1-yl)phenyl]-4,5-dihydro-3H-2,3-benzodiazepin-3-yl}ethanone] the same measures were 860 nM and 620 nM.

The record behind these values is patent US9890147B2 (BAYER PHARMA AKTIENGESELLSCHAFT, priority 2012, dated 2018).
